These results are taken from patent US4260607A, “Cephalosporin esters” (Takeda Chemical Industries, Ltd., priority 1976, dated 1981).

The subject of series [1] is S. aureus 1840. As to the kind of experiment: MIC, S. aureus 1840. It is filed as cell-based. Particulars: unit assumed.
The test system of series [2] is E. coli NIHJ JC-2. The series can be described thus: MIC, E. coli NIHJ JC-2. It is filed as cell-based. Particulars: unit assumed.
The subject of series [3] is K. pneumoniae DT. The series can be described thus: MIC, K. pneumoniae DT. The format is cell-based. Particulars: unit assumed.
Series [4] deals with P. vulgaris Eb. 58. The series can be described thus: MIC, P. vulgaris Eb. 58. The format is cell-based. Particulars: unit assumed.
Series [5] deals with E. coli 0-111. As to the kind of experiment: MIC, E. coli 0-111. It is filed as cell-based. Particulars: unit assumed.
The subject of series [6] is S. aureus 209P. As to the kind of experiment: MIC, S. aureus 209P. Particulars: unit assumed. The format is cell-based.
The conditions of series [7]: in vivo, po; for Blood-level in rat, 0.5 hours: 30 min; for Blood-level in rat, 1 hour: 60 min; for Blood-level in rat, 2 hours: 120 min; for Hydrolysis of 4-position ester after absorption in blood: rat.

In brackets after ≈: the same amount, converted by molar mass. Structures can show the parent of a compound that is named as a salt.

As to `CC1=C(C(=O)O)N2C(=O)[C@@H](NC(=O)[C@H](N)c3ccccc3)[C@H]2SC1` [Cephalexin, reference compound], the MIC in series [1] was 12.5 µg/mL (≈ 36 µM); in series [2], 12.5 µg/mL (≈ 36 µM); in series [3], 6.25 µg/mL (≈ 18 µM); in series [4] it was 12.5 µg/mL (≈ 36 µM); in series [5], 12.5 µg/mL (≈ 36 µM).
In the case of `Cc1nnc(SCC2=C(C(=O)O)N3C(=O)[C@@H](NC(=O)Cc4csc(=N)[nH]4)[C@H]3SC2)s1` [Compound (A)], the MIC in series [6] was determined as 0.39 µg/mL (≈ 0.805 µM); in series [1], 0.78 µg/mL (≈ 1.61 µM); in series [2], 1.56 µg/mL (≈ 3.22 µM); in series [3], 0.39 µg/mL (≈ 0.805 µM); in series [4] it was 0.78 µg/mL (≈ 1.61 µM); in series [5], 0.39 µg/mL (≈ 0.805 µM).
For the compound `Cc1nnc(SCC2=C(C(=O)OCOC(=O)C(C)(C)C)N3C(=O)[C@@H](NC(=O)Cc4csc(=N)[nH]4)[C@H]3SC2)s1` [Example 1, 7β-(2-imino-4-thiazolin-4-yl)acetamido-3-(5-methyl-1,3,4-thiadizolyl-2-yl)thiomethyl-3-cephem-4-pivaloyloxymethyl carboxylate hydrochloric acid salt], in series [7] (100 mg/kg), the “Blood-level in rat, 0.5 hours” value came out at 31.8 meg/ml; the “Blood-level in rat, 1 hour” value is recorded as 29.3 meg/ml; the “Blood-level in rat, 2 hours” value stood at 22.0 meg/ml. For the same compound, the “Blood-level in rat, 4 hours” value in series [7] (100 mg/kg, 240 min) stood at 8.7 meg/ml. Also, in series [7], the “Hydrolysis of 4-position ester after absorption in blood” value was “hydrolyzed at 4-position carboxylic acid ester after being absorbed in blood”.
Consider `CCOC(=O)OC(C)OC(=O)C1=C(CSc2nnc(C)s2)CS[C@@H]2[C@H](NC(=O)Cc3csc(=N)[nH]3)C(=O)N12` (some centres unmarked) [Example 2], for which, in series [7] (100 mg/kg), the “Blood-level in rat, 0.5 hours” value amounted to 32.4 meg/ml; the “Blood-level in rat, 1 hour” value is 28.3 meg/ml; the “Blood-level in rat, 2 hours” value worked out at 21.0 meg/ml. In addition, in series [7], the “Hydrolysis of 4-position ester after absorption in blood” value is “hydrolyzed at 4-position carboxylic acid ester after being absorbed in blood”.
